A short description of series [1]: Lipophilicity, log D at pH 7.4. It is filed as physicochemical. The conditions noted are these: buffer.
Series [2] in a line: Bioavailability in rat at 3 mg/kg, po. The conditions noted are these: in vivo. The format is ADME, organism-based.

For `CC(C)(C)[C@H](NC(=O)n1c(=O)n(CCC2CCOCC2)c2ccccc21)C(N)=O`, the logD (as a rule, lipophilicity at a set pH, counting ionised and neutral species) in series [1] came out at 2.4.

Compound `CC(C)(C)[C@H](NC(=O)n1c(=O)n(CC2CCCO2)c2ccccc21)C(N)=O` (stereo not given in full) came in with a logD in series [1] of 2.1.

For the compound `CC(C)(C)[C@H](NC(=O)n1c(=O)n(CCC2(O)CCOCC2)c2ccccc21)C(N)=O`, the logD in series [1] turned out to be 1.9.

For `CN(C)CCn1c(=O)n(C(=O)N[C@H](C(N)=O)C(C)(C)C)c2ccccc21`, the logD in series [1] is 1.5.

In series [1], `CC(C)(O)CCn1c(=O)n(C(=O)N[C@H](C(N)=O)C(C)(C)C)c2ccccc21` displayed a logD of 2.2. Moreover, the bioavailability – broadly, the share of a dose that reaches the circulation, judged against a reference dose that is usually intravenous – in series [2] stood at 33%.

As to `CC(C)(C)[C@H](NC(=O)n1c(=O)n(CC2(O)CCOCC2)c2ccccc21)C(N)=O`, the logD in series [1] is 1.6.

In series [1], `CC(C)(O)Cn1c(=O)n(C(=O)N[C@H](C(N)=O)C(C)(C)C)c2ccccc21` yielded a logD of 2.2.

In series [1], `CC(C)(C)[C@H](NC(=O)n1c(=O)n(CCN2CCCC2)c2ccccc21)C(N)=O` registered a logD of 1.5.

In series [1], `CC(C)CCn1c(=O)n(C(=O)N[C@H](C(N)=O)C(C)(C)C)c2ccccc21` came in with a logD of 3.4.

These data come from ChEMBL document CHEMBL1150312, “The SAR studies of novel CB2 selective agonists, benzimidazolone derivatives” (Bioorg Med Chem Lett, 2008).
